From patent US20100093655A1 (priority 2007, published 2010)
Like-named read-outs stand apart in the source and are kept apart here. Marks after values point to notes of the source that are not given here.

Tests used:
HIV-1 = details: for Viral RNA Number of copies/ml: after 6 days (day 12-18); for viral RNA expressed, more than the control: patient two, no therapy
[1] = tested on: lymphocytes of patients suffering from AIDS; assay type: cell-based, human; details: for Cell survival rate (×100%): day 18 vs day 12
[2] = tested on: lymphocytes of patients suffering from AIDS; assay type: cell-based, human; details: after 6 days (day 12-18)
HIV-1 proviral DNA = assay: Proviral DNA, modified Muprovama test; details: for Proviral DNA Number of copies/10^6 cells: after 6 days (day 12-18); for Log of proviral HIV DNA: riluzole 0.1 μM (+), mean ± S.D.
IL-15 = assay: Measurement of interleukin-15 production (ELISA of supernatant); assay type: cell-based; details: riluzole 10^-8 M, culture supernatant, without riluzole 1
[3] = tested on: lymphocytes of a patient suffering from AIDS; assay: Apoptosis test (annexin V / propidium iodide, flow cytometry); assay type: cell-based, human; details: after 13 days; 10^-7-10^-8 M
Experimental: The apoptotic cells were measured using propidium iodide and FITC-labeled annexin V, which is a phospholipid-binding protein that binds preferentially to the phosphatidylserine exposed at the surface of the cells in the initial phase of apoptosis, by means of a commercially available kit (Immunotech, Marseille, France). The cells that were propidium-iodide-negative and annexin-V-positive were identified as being apoptotic cells, whereas those that were positive for both propidium iodide and annexin V were considered to be pre-necrotic cells. […] Counting of T cells having CD4+ and CD8+ phenotypes, of the Ki-67 activation marker and of annexin V was carried out by flow cytometry analysis (FACScan, Becton Dickenson, San José, Calif., USA). A series of monoclonal antibodies directed against the following surface markers of T cells was used: CD4-PerCP, CD8-PE (Becton Dickinson, France), Ki-67-FITC (Pharmingen, Los Angeles, Calif., USA), Annexin-FITC (Immunotech, Marseille, France).

H9 line = assay: Inhibition of tumor cell proliferation; assay type: cell-based; details: H9 line (FIG. 9d)
Source text: (§1) After 5 days, the proliferation of the cells is estimated by tritiated (3H) thymidine incorporation. Other tumor lines were used, namely the H9 line (T lymphoma), the NB4 line (line derived from an acute promyelocytic leukemia) and the Jurkat line (T-lymphoma-derived lymphoblastic T cell line).

Jurkat line = assay: Inhibition of tumor cell proliferation; assay type: cell-based; details: Jurkat line (FIG. 9b)
Source text: as §1

NB4 line = assay: Inhibition of tumor cell proliferation; assay type: cell-based; details: NB4 line (FIG. 9c)
Source text: as §1

interferon-β gene = assay: Detection of cytokines by real-time PCR; assay type: cell-based; details: real-time PCR (FIG. 8)
Experimental: (§2) Using real-time PCR, 2 μg of total RNA is first reverse-transcribed by means of a kit (High Capacity cDNA Archive kit PN: 4322171, Applied Biosystems, Foster City, Calif.) using random primers and the MultiScribe RT enzyme (5 U/μl) for 2 hours at 37° C. The method of labeling with a SYBR Green, a fluorescent molecule which intercalates into the minor groove of the double helix, was used. The reaction is carried out using a thermocycler (ABI prism 7900 HT, Applied Biosystems, Foster City, Calif.). Each point studied was composed of 5 μl of SYBR Green PCR Master Mix (PN:4344463; Applied Biosystems, Foster City, Calif.), 0.3 μl of sense and antisense primer at a concentration of 10 μM (Proligo), 3.4 μl of Rnase-free water and 1 μl of cDNA. After a denaturation step at 95° C. for 15 min, the amplification is carried out after 40 cycles at 95° C. for 15 s, 60° C. for 30 s and 72° C. for 30 s. At the end of the PCR, a dissociation step corresponding to the amplification peak, which takes place in a cycle of 95° C. for 15 s, 60° C. for 15 s and 95° C. for 15 s, verifies the validity of the primers. The primers for all the genes studied were chosen according to the Oligo Explorer 1.1 amplification conditions. The samples were studied in duplicate in the presence of a negative control, composed of Master Mix and the primers, but without the cDNA. Glyceraldehyde phosphate dehydrogenase (GAPDH) was used as endogenous control gene.
(§3) The effect of the treatments on the levels of mRNA of interest is studied using the method of comparison of CTs (Peinnequin et al., 2004) or number of cycles necessary to reach a threshold fluorescence value (software SDS 2.1, AB prism).
(§4) The sequences of the primers used are the following (Proligo LLC, Boulder, Colo., USA) (forward-reverse): […]

Toll receptor 3 gene = assay: Detection of cytokines by real-time PCR; assay type: cell-based; details: real-time PCR (FIG. 8)
Experimental: as §2, §3, §4

IL-15 gene = assay: Detection of cytokines by real-time PCR; assay type: cell-based; details: real-time PCR (FIG. 8)
Experimental: as §2, §3, §4

interferon-α gene = assay: Detection of cytokines by real-time PCR; assay type: cell-based; details: real-time PCR (FIG. 8)
Experimental: as §2, §3, §4

[4] = tested on: TG 180 line (Crocker sarcoma tumor); assay: Inhibition of tumor cell proliferation (3H thymidine incorporation); assay type: cell-based; details: 120 h, 5 days (FIG. 9a)
Source text: as §1

Ki-67 antigen = assay: Expression of the Ki-67 antigen (flow cytometry); assay type: cell-based, human
FAS (CD95/APO-1) = assay: Apoptosis induced by the anti-FAS antibody (annexin V expression); assay type: cell-based, human; details: lymphocytes of patient two
Experimental: The apoptotic cells were measured using propidium iodide and FITC-labeled annexin V, which is a phospholipid-binding protein that binds preferentially to the phosphatidylserine exposed at the surface of the cells in the initial phase of apoptosis, by means of a commercially available kit (Immunotech, Marseille, France). The cells that were propidium-iodide-negative and annexin-V-positive were identified as being apoptotic cells, whereas those that were positive for both propidium iodide and annexin V were considered to be pre-necrotic cells. The apoptosis caused by the anti-FAS monoclonal antibody (CD95/APO-1) (Immunotech, Marseille, France) was thus measured since it is well known that Fas/Fas ligand apoptosis is amplified in AIDS disease.
Counting of T cells having CD4+ and CD8+ phenotypes, of the Ki-67 activation marker and of annexin V was carried out by flow cytometry analysis (FACScan, Becton Dickenson, San José, Calif., USA). A series of monoclonal antibodies directed against the following surface markers of T cells was used: CD4-PerCP, CD8-PE (Becton Dickinson, France), Ki-67-FITC (Pharmingen, Los Angeles, Calif., USA), Annexin-FITC (Immunotech, Marseille, France).
As indicated above, it is well established that the lymphocytes of HIV-1-infected patients are sensitive to apoptosis induced by the expression of FAS (CD95/APO-1) and of its agonist, the anti-FAS antibody.

**Q.** With `Cc1cn([C@H]2C[C@H](N=[N+]=[N-])[C@@H](CO)O2)c(=O)[nH]c1=O` [AZT] as the compound, how does the “antiviral effect on the control cells” value (HIV-1; AZT 1 μg/ml) read?
**A.** partial, or even equivalent

**Q.** And the antiviral effect (HIV-1; AZT 10 μg/ml)?
**A.** exerts an antiviral effect

**Q.** And the “Viral RNA Number of copies/ml” value (HIV-1; Individual AR, AZT 1 μg/ml)?
**A.** 35 000 copies/ml

**Q.** And the “Viral RNA Number of copies/ml” value (HIV-1; Individual AR, AZT 10 μg/ml)?
**A.** <100 copies/ml

**Q.** And the “Viral RNA Number of copies/ml” value (HIV-1; Individual PR, AZT 1 μg/ml)?
**A.** 7000 copies/ml

**Q.** And the “Viral RNA Number of copies/ml” value (HIV-1; Individual PR, AZT 10 μg/ml)?
**A.** <100 copies/ml

**Q.** And the “effect on proliferation of the control cells” value ([1]; AZT 10 μg/ml)?
**A.** suppressor (antiproliferative) effect

**Q.** And the “Cell survival rate (×100%)” value ([1]; Individual AR, AZT 1 μg/ml)?
**A.** 5 ×100%

**Q.** What about the “Cell survival rate (×100%)” value ([1]; Individual AR, AZT 10 μg/ml) of the same compound?
**A.** 4 ×100%

**Q.** And the “Cell survival rate (×100%)” value ([1]; Individual PE, AZT 10 μg/ml)?
**A.** 3 ×100%

**Q.** What about the “Cell survival rate (×100%)” value ([1]; Individual PR, AZT 1 μg/ml) of the same compound?
**A.** 12 ×100%

**Q.** What about the “Cell survival rate (×100%)” value ([1]; Individual PR, AZT 10 μg/ml) of the same compound?
**A.** 13 ×100%

**Q.** What about the “Cell survival rate (×100%)” value ([1]; Individual beta, AZT 1 μg/ml) of the same compound?
**A.** 3 ×100%

**Q.** And the “Viability % dead cells” value ([2]; Individual AR, AZT 1 μg/ml)?
**A.** 28%

**Q.** And the “Viability % dead cells” value ([2]; Individual AR, AZT 10 μg/ml)?
**A.** 25%

**Q.** And the “Viability % dead cells” value ([2]; Individual PR, AZT 1 μg/ml)?
**A.** 19%

**Q.** What about the “Viability % dead cells” value ([2]; Individual PR, AZT 10 μg/ml) of the same compound?
**A.** 20%

**Q.** What about the “Viability % dead cells” value ([2]; Individual beta, AZT 1 μg/ml) of the same compound?
**A.** 29%

**Q.** And the “Viability % dead cells” value ([2]; Individual beta, AZT 10 μg/ml)?
**A.** 20%

**Q.** And the “Proviral DNA Number of copies/10^6 cells” value (HIV-1 proviral DNA; Individual AR, AZT 1 μg/ml)?
**A.** 6.1 Log copies/10^6 cells

**Q.** And the “Proviral DNA Number of copies/10^6 cells” value (HIV-1 proviral DNA; Individual AR, AZT 10 μg/ml)?
**A.** 5.4 Log copies/10^6 cells

**Q.** And the “Proviral DNA Number of copies/10^6 cells” value (HIV-1 proviral DNA; Individual PR, AZT 1 μg/ml)?
**A.** 4.9 Log copies/10^6 cells

**Q.** And the “Proviral DNA Number of copies/10^6 cells” value (HIV-1 proviral DNA; Individual PR, AZT 10 μg/ml)?
**A.** 4.8 Log copies/10^6 cells

**Q.** With `Nc1nc2ccc(OC(F)(F)F)cc2s1` [riluzole, 6-(trifluoromethoxy)-2-aminobenzothiazole] as the compound, how does the “production of IL-15” value (IL-15) read?
**A.** 6 pg/mL

**Q.** What about the “production of IL-15” value (IL-15; listed as Riluzole) of the same compound?
**A.** 15* pg/ml

**Q.** And the “virus measurement versus control” value (HIV-1; patient one, 10^-7 M, days 3 and 6 of culture)?
**A.** virtually the same

**Q.** And the “HIV-1 RNA of conditioned cultures versus controls” value (HIV-1; patient one, 10^-7 M, days 10 and 13 (FIG. 1C))?
**A.** twice as high

**Q.** What about the “viral RNA expressed, more than the control” value (HIV-1; day 13 (FIG. 3C)) of the same compound?
**A.** up to 0.7 log10

**Q.** And the “viral RNA expressed, more than the control” value (HIV-1; from the 6th day, doses 10^-8 M, 10^-7 M and 10^-8 M as printed)?
**A.** 0.8 logn

**Q.** What about the “HIV-1 RNA in culture supernatants, increase” value (HIV-1; untreated patient one, 10^-7 M, day 13 of culture) of the same compound?
**A.** 100%

**Q.** What about the “inhibition of apoptosis of CD4 lymphocytes” value [3] of the same compound?
**A.** 80%

**Q.** And the “inhibition of apoptosis of CD8 lymphocytes” value [3]?
**A.** 70%

**Q.** What about the “inhibition of total apoptosis expressed by all the lymphocytes” value [3] of the same compound?
**A.** 66%

**Q.** And the “inhibition of the proliferation of tumor cells” value (“inhibition … of tumor cells” below) (H9 line)?
**A.** inhibition of the proliferation of these tumor cells is also observed

**Q.** What about the “inhibition … of tumor cells” value (Jurkat line) of the same compound?
**A.** inhibition of the proliferation of these tumor cells is also observed

**Q.** And the “inhibition … of tumor cells” value (NB4 line)?
**A.** inhibition of the proliferation of these tumor cells is also observed

**Q.** And the “expression of the interferon-β gene” value (interferon-β gene)?
**A.** capable of inducing the expression

**Q.** And the “expression of the Toll receptor 3 gene” value (Toll receptor 3 gene)?
**A.** capable of inducing the expression

**Q.** And the “expression of the IL-15 gene” value (IL-15 gene)?
**A.** capable of inducing the expression

**Q.** And the “expression of the interferon-α gene” value (interferon-α gene)?
**A.** capable of inducing the expression

**Q.** What about the inhibition at 100 µM ([4]; 10^-4 M) of the same compound?
**A.** 86%

**Q.** And the inhibition at 10 µM ([4]; 10^-5 M (first mention))?
**A.** 40%

**Q.** And the inhibition at 10 µM ([4]; 10^-5 M (second mention))?
**A.** 30%

**Q.** And the “Log of proviral HIV DNA” value (HIV-1 proviral DNA; TT(+), V: 44.000, Day 3 of culture)?
**A.** 2 ± 0.3 Log copies [cp]/10^6 cells

**Q.** And the “Log of proviral HIV DNA” value (HIV-1 proviral DNA; TT(+), V: 44.000, Day 6 of culture)?
**A.** 0.3 ± 0.1 Log copies [cp]/10^6 cells

**Q.** And the “Log of proviral HIV DNA” value (HIV-1 proviral DNA; TT(+), V: 250, Day 3 of culture)?
**A.** 3 ± 0.2 Log copies [cp]/10^6 cells

**Q.** And the “Log of proviral HIV DNA” value (HIV-1 proviral DNA; TT(+), V: 250, Day 6 of culture)?
**A.** 0.2 ± 0.1 Log copies [cp]/10^6 cells

**Q.** And the “Log of proviral HIV DNA” value (HIV-1 proviral DNA; TT(−), V: 68.000, Day 3 of culture)?
**A.** 3.7 ± 0.2 Log copies [cp]/10^6 cells

**Q.** And the “Log of proviral HIV DNA” value (HIV-1 proviral DNA; TT(−), V: 68.000, Day 6 of culture)?
**A.** 0.7 ± 0.1 Log copies [cp]/10^6 cells

**Q.** What about the “inhibition of Ki-67 antigen expression by all of the lymphocytes” value (Ki-67 antigen; after 13 days in the presence of riluzole (FIG. 6A)) of the same compound?
**A.** ~33%

**Q.** What about the “inhibition of Ki-67 antigen expression by the CD8 lymphocytes” value (Ki-67 antigen; after 13 days in the presence of riluzole (FIG. 6B)) of the same compound?
**A.** ~37%

**Q.** And the “inhibition of Ki-67 antigen expression by the CD4 lymphocytes” value (Ki-67 antigen; after 13 days in the presence of riluzole (FIG. 6C))?
**A.** ~50%

**Q.** What about the inhibition at 0.01 µM (FAS (CD95/APO-1); Homo sapiens, Lymphocyte, 10^-8 M) of the same compound?
**A.** 62%

**Q.** What about the “apoptosis (annexin V expression) of cells coupled to anti-FAS antibody” value (FAS (CD95/APO-1); 10^-8 M, control 50%) of the same compound?
**A.** 15%

**Q.** What about the “percentage inhibition of apoptosis, cells cultured without anti-FAS antibody” value (FAS (CD95/APO-1); compared with the 62% inhibition with antibody) of the same compound?
**A.** comparable
